Data as given in patent US7056890B2, “Combination therapy for effecting weight loss and treating obesity” (VIVUS, Inc., priority 1999, dated 2006).

Key:
[1] = Trial of phentermine in combination with topiramate to effect weight loss in patients; format: in vivo, human; conditions: follow-up 2-9 weeks
Description: Patients as part of the following trial were treated according to the following dosage regimen. Patients took phentermine at a dose of 15 mg daily throughout the weight loss program, before breakfast. For the first 6 days, patients took one 25 mg tablet of topiramate before supper. For the next 6 days, patients took two 25 mg tablets of topiramate before supper. For the next 7 days (days 13–19), patients took 100 mg before supper daily using 4–25 mg tablets of topiramate daily. For days 20–26, patients took 150 mg of topiramate daily consisting of one-half of a 200 mg tablet and two 25-mg mg tablets of topiramate. From that point on, unless instructed otherwise by the physician, patients continued to take one 200 mg topiramate tablet daily before supper and continued the 15 mg phentermine daily in the morning. Patients were advised to drink at least eight (8) full glasses of water daily to reduce the risk of kidney stones which may result from taking topiramate.
Patients were advised that while the effect of phentermine is fairly rapid, the effect of topiramate is slower in onset. The weight reduction effect of topiramate will continue for as long as 18 months on the medication. That is, the patient can expect to continue gradual weight loss for up to 18 months on the medication. Of course, weight loss is maximal if the patient follows diet and/or exercise programs. The weight loss should exceed 15% of the patients starting weight. Thus, if the patient weighs about 200 pounds as of the start date, he/she might expect to lose at least 30 pounds in a period of 12–18 months. The following patient data has been collected.
A total of thirteen patients were treated for 1–9 months with phentermine (15 mg daily) in the morning and up to 400 mg of topiramate (median dose 200 mg), in the evening. […] Along with taking medication, patients were instructed to walk at least 30 minutes three times per week and to follow a low fat diet. No patients had taken diet medication for at least 3 months prior to treatment. Average baseline BMI was 32.5 (range 26–48).

[2] = literature studies; cited from earlier work
[3] = Case history of patient(B), topiramate added to phentermine; format: in vivo, human; conditions: on phentermine after Redux withdrawal
Description: They once weighed as much as 395 pounds. When Redux was still on the mark in the United States, they were treated with a combination of diet, exercise, Redux and phentermine. Their lowest weight attained was 285 pounds. When Redux was withdrawn from the market, they remained on phentermine but gained weight back to 295–300 pounds. When topiramate was added to their regimen, they managed to lose 25 pounds and is currently at 271 pounds, their lowest weight since they were […].

| Compound | weight loss, drug compared with placebo [2] | also measured |
| --- | --- | --- |
| CC(C)CC(N(C)C)C1(c2ccc(Cl)cc2)CCC1.Cl (centres unmarked) [Meridia] |  | Follow-Up Weight (lbs) ([1]; individual patients (one per line), phentermine 15 mg daily, topiramate titrated 25 to 200 mg daily): 177 lbs; Follow-Up Blood Pressure ([1]; individual patients): 120/80; % Weight Loss ([1]; individual patients, versus start weight): 2.7% |
| CCN[C@@H](C)Cc1cccc(C(F)(F)F)c1 [dexfenfluramine] | about 5 % of body weight |  |
| CCCCCCCCCCC[C@@H](C[C@@H]1OC(=O)[C@H]1CCCCCC)OC(=O)[C@H](CC(C)C)NC=O [orlistat] | about 5 % of body weight |  |
| CC(C)(N)Cc1ccccc1 [phentermine] | about 5 % of body weight | weight regained [3]: 295–300 pounds |
| CC(C)CC(N(C)C)C1(c2ccc(Cl)cc2)CCC1 (centres unmarked) [sibutramine] | about 5 % of body weight |  |
